Measurements published in US20190307690A1 (THE AMERICAN UNIVERSITY IN CAIRO, priority 2016, published 2019).

Tests used:
[1] = In-vitro drug release analysis (dialysis, PBS pH 7.4) with release kinetics and f1/f2 comparison; format: physicochemical; settings: oxaliplatin release
Protocol: The drug release testing was conducted according to a described method (Shazly et al., Comparison of dialysis and dispersion methods for in vitro release determination of drugs from multilamellar liposomes, Dissolution Technol., vol. 15, no. 2, pp. 7-10, 2008). […] A volume of 0.5 ml of liposomal preparation was placed in a dialysis tubing (3.8 cm in length). Both ends were tied. The dialysis bag was suspended in 25 ml PBS at pH 7.4 and maintained at 37±0.5° C. (Shazly et al., 2008). The dispersion was rotated at 200 strokes/minute in a water bath shaker (Shazly et al., 2008). At predetermined time intervals of 0.25, 0.5, 1, 1.5, 2, 4, 6, 8, 12, 24, 48, and 72 h; 1 ml aliquots were sampled and replaced with 1 ml fresh pH 7.4 PBS, which was maintained at the same temperature as the samples being 37±0.5° C. Drug concentrations were determined using HPLC.
Two methods were used to investigate the kinetics of drug release profile from the prepared liposomal formulations.
This method involved the fitting of the release data to one of the following seven release kinetic models.
Where, Qt is the amount of drug released in time t, Q0 is the initial amount of drug in the solution and K0 is the zero order release constant expressed in units of concentration/time. To study the release kinetics, data obtained from in-vitro drug release studies were plotted as cumulative amount of drug released versus time.
Where, Ct is the concentration of drug released in time t, C0 is the initial concentration of drug, K1 is the first order rate constant. The data obtained were plotted as log cumulative percentage of drug remaining versus time which would yield a straight line with a slope of −K/2.303.
Where, Q is the amount of drug released in time t, KH is the Higuchi dissolution constant. The data obtained were plotted as cumulative percentage of drug released versus square root of time.
Where, Qt is the amount of drug remaining in time t, Q0 is the initial amount of the drug in liposome and KC is the rate constant for Hixson-Crowell rate equation. The data obtained were plotted as Cube root of cumulative percentage of drug remaining versus time.
Where Mt/M∞ is a fraction of drug released at time t, KP is the release rate constant and n is the release exponent. The data obtained were plotted as log (cumulative percentage of drug released) versus log (time).
Where [Mt/M∞] is a fraction of drug released at time t, KB is the release rate constant. To study the release kinetics, data obtained from in-vitro drug release were plotted as [d(Mt/M∞)/dt] against the root of time inverse on x-axis.
Where Vm is the maximum release rate, Km is the Michaelis-Menten constant, C is the amount of drug released, and t is time. The data obtained were plotted as drug release % versus time. Michaelis-menten was previously reported in describing the release kinetics of Ketorolac from silica nanoparticles (Lopez Goerneet al., Obtaining of sol-gel ketorolac-silica nanoparticles: Characterization and drug release kinetics, J. Nanomater., vol. 2013, 2013).
This method utilizes the difference factor (f1), similarity factor (f2) to compare the release profiles of different formulations by measuring the percent difference and the percent similarity respectively.
Where, n is the number of release sample time intervals, Rt, and Tt are the percent released at each time point, t, for the reference and test drug release profiles, respectively.

MCF-7 cell line = test: γ-H2AX assay (DNA damage); format: cell-based, human; settings: 2 μM, 1 hr exposure, 24 hours in fresh media; preliminary data
Protocol: After incubation, the media was discarded and the cells were further incubated in fresh media for 24 hours. Cells were then fixed using formaldehyde and permeabilized with Triton X-100, and subsequently incubated with H2AX primary antibody for 1 hr. Then, cells were washed using PBS and were further incubated for 30 min. in FITC mouse secondary antibody and washed using PBS. Finally cells were stained using DAPI and observed under a fluorescence microscope.

[2] = reference [91]; cited from earlier work

N[C@@H]1CCCC[C@H]1N.O=C([O-])C(=O)[O-].[Pt+2] [Oxaliplatin, Platinum(2+) ethanedioate (1R,2R)-1,2-cyclohexanediamine (1:1:1)]
Baker-Lonsdale K (release rate constant) [1]: 0.1963 | First-order K1 (release rate constant) [1]: −0.0172 | Higuchi KH (rate constant) [1]: 4.5644 | Hixson-Crowell KC (cube root law release constant) [1]: −0.0127 | Korsmeyer-peppas n (slope exponent) [1]: 0.0257 | Michaelis-Menten K (release rate constant) [1]: 0.0422 | Zero-order K0 (release rate constant) [1]: 0.3444 | F1 (difference factor) ([1]; Reference LP-Ox): 11.37 | F2 (similarity factor) ([1]; Reference LP-Ox): 50.60 | F1 (difference factor) ([1]; Reference LP-void-Oxpt): 22.47 | F2 (similarity factor) ([1]; Reference LP-void-Oxpt): 38.25 | F1 (difference factor) ([1]; Reference Lipoxal): 252.7 | F2 (similarity factor) ([1]; Reference Lipoxal): 8.940 | DNA damage magnitude (γ-H2AX immunofluorescence), in words (MCF-7 cell line): relatively lower DNA damage | Cell membrane permeability [2]: <1 × 10^−6 [91] cm/s
